This note sets out measurements from a melting point compilation (Tetko et al.).

Molecules are shown by their SMILES.

Consider `C=CCC(=O)N1CCN(C(=O)OCC2c3ccccc3-c3ccccc32)CC1`, for which the melting point lay in the range of 105 to 107 °C.
Under `Oc1ccnc2ccc(C(F)(F)F)cc12` stands 265 to 268 °C; under `N#CC1(c2ccc(F)cc2)CCCCC1`, 33 to 38 °C.
Under `CC12CCC(/C(=C/Nc3ccccc3)C1=O)C2(C)C` (stereo not given) stands 165 to 167 °C; under `O=C1Nc2ccc([N+](=O)[O-])cc2C1=O`, 251 °C.
The result for `C1CCCCCC1` reads -8 °C.
For `N#C/C(=N/Nc1cc(Cl)c(Cl)cc1Cl)c1nc2ccccc2c(=O)[nH]1`, the melting point stood at 149 °C.
Regarding `CCOC(=O)c1cn[nH]c1NC(=O)Nc1ccc(F)cc1`, the melting point was in the range of 255 to 257 °C.
The result for `COc1cc2c(cc1C)C(C(=O)O)C2` (stereo not given) reads 138 °C.
Under `CCC(=O)OC1CCC2C3CCC4=CC(=O)CCC4(C)C3CCC12C` (stereo not given) stands 120 °C; under `O=C(C[N+](=O)[O-])c1cccc(C(=O)C[N+](=O)[O-])c1`, 160 °C; under `COc1ccc[nH]c1=O`, 115 °C.
Under `CCO[Si](CCCN)(OCC)OCC` stands -70 °C; under `OC1CC(O)C(O)CO1` (stereo not given), 69 to 72 °C; under `CC(C)(C)c1ccc(-c2nn[nH]n2)cc1`, 193 to 195 °C.
`COc1cc(C=CC(=O)O)cc(OC)c1O` displayed a melting point of 203 to 205 °C.
The result for `COC(=O)c1cnccn1` reads 58 °C.
The result for `ClCc1cc(-c2ccccc2)on1` reads 48 to 49 °C; that for `O=C(O)C=CC(=O)Nc1cccc2ccccc12`, 150 to 153 °C.
Consider `CCCCCCCCCCCCCCCC(=O)OCCCC`, for which the melting point is 16.9 °C.
The result for `CC(=O)Nc1ccc(C(F)(F)F)cc1Br` reads 144 to 146 °C; that for `c1ccc2sc(Cc3nc4ccccc4s3)nc2c1`, 92 to 96 °C.
On to `CCCCCCCCCCCCOc1ccc(N=Cc2ccc(N(C)C)cc2)cc1`, for which the melting point was 94.5 °C.
Under `CC(=O)Nc1ccc(N=Nc2ccc(N=Nc3ccc(/N=N/c4ccc(NC(C)=O)cc4)cc3)cc2)cc1` stands 245 to 248 °C.
Under `O=[N+]([O-])c1ccc2c(c1)OCCOCCOc1ccccc1OCCOCCO2` stands 190 to 195 °C; under `Cn1nc(-c2ccco2)cc1C(=O)O`, 130 °C.
With `CCCCCCNC(=O)c1ccc(O)c(O)c1`, the melting point stood at 140 °C.
The result for `CC(C)(C)OC(=O)c1n[nH]c2nc(F)ccc12` reads 166 to 168 °C; that for `CC1=NC(C)CNc2c1c(=O)n(-c1ccccc1)c1ccccc21` (stereo not given), 273 °C; that for `Cn1ccc2c(C(=O)O)cccc21`, 243 to 245 °C.
Under `BrC=Cc1ccccc1` stands 7 °C; under `CC(=O)N1CCCCC1`, -13.4 °C.
Under `ClCc1nc(-c2cccs2)no1` stands 59 to 60 °C; under `O=C(O)C(=O)CBr`, 79 to 82 °C.
On to `CN(C)c1nc(-c2cccs2)cc(C(F)(F)F)c1C#N`, for which the melting point fell in the range of 118 to 119 °C.
Under `CC(C(=O)O)C(=O)O` stands 129 to 136 °C; under `Nc1ccc2ccc3ccccc3c2c1`, 143 °C.
Under `O=[N+]([O-])c1ccc(N=C=Nc2ccc([N+](=O)[O-])cc2)cc1` stands 166 to 168 °C; under `CC1CC(=O)OC(=O)C1`, 40 to 45 °C; under `CCCCCCCSCCCCCCC`, 70 °C.
As to `CCc1ccc(C(=O)NN)cc1`, the melting point was 84 to 87 °C.
Under `CC(=O)C1C(=O)c2cccc([N+](=O)[O-])c2C1=O` (stereo not given) stands 147 to 150 °C; under `Cc1cc(C)c2cc(C)ccc2c1`, 12 °C; under `C1=CCC(c2ccncc2)CC1` (stereo not given), 22.1 °C.
The result for `Cc1nc(-c2cccc(S(=O)(=O)Cl)c2)no1` reads 67 to 69 °C.
